This passage reports IC50 results from patent US4469705A, “Saturated leukotriene derivatives as antiallergens” (McNeilab, Inc., priority 1982, dated 1984).

In test [1] the test system is contraction of guinea pig parenchymal tissue by immunological release of SRS-A. Kind of test: Guinea pig parenchymal strip: inhibition of contraction by immunological release of SRS-A (isolated tissue). It is filed as cell-based. As to conditions: Cavia porcellus; egg albumin challenge of sensitized tissue; chlorpheniramine (10^-5 M), indomethacin (10^-4 M); test compound 30 min before challenge. The procedure:
(b) Guinea Pig Parenchymal Strip
The guinea pigs were sacrificed and lungs removed. Strips of subpleural parenchyma were prepared from the left and right diaphragmatic lobes and suspended in a tissue bath under 1 gram of tension. After a one hour equilibration period, a dose response to histamine (10^-7 to 10^-4 M) induced contractions was performed to determine maximal contraction. The tissues were then washed and allowed to relax to baseline. Chlorpheniramine (10^-5 M), indomethacin (10^-4 M) and test compound were added 30 minutes prior to challenge with egg albumin. The response to antigen was measured in milligrams of tension.

The subject of test [2] is SRS-A induced contraction of guinea pig ileum. Kind of test: Guinea pig ileum: inhibition of SRS-A induced contraction (isolated tissue). Type of test: cell-based. As to conditions: Cavia porcellus, atropine and chlorpheniramine (1×10^-5 M) present, test drug 5 min before SRS-A, read-out: G.P. Ileum IC50. Here is the method: The tissue is exposed to […] histamine at 1-3 minute intervals until a reproducible response is obtained. Atropine (1×10^-5 M) and chloropheniramine (1×10^-5 M) are added followed by 1-2 biological units of SRS-A. After washing the tissue, the response to BaCl2 (1×10^-3 M) was also noted.

Structures are written as SMILES.

Usually IC50 stands for the concentration that inhibits the measured activity by half. On to `CCCCCCCCCCC[C@@H](SCCC(=O)OC)[C@@H](O)CCCCC(=O)OC` (relative stereo) [Example 4, Erythro Methyl 6-Hydroxy-7-{[2-(methoxycarbonyl)ethyl]thio}octadecanoate], for which the IC50 in test [1] was 1.1 µM.
On to `CCCCCCCCCCC[C@@H](SCCC(=O)O)[C@H](O)CCCCC(=O)O` (relative stereo) [Example 2, Threo 7-(2-Carboxyethyl)thio-6-hydroxyoctadecanoic Acid], for which the IC50 came to 9 µM in test [2] and 100 µM in test [1].
With `CCCCCCCCCCCC(SC[C@H](N)C(=O)OC)C(O)CCCCC(=O)OC` (stereo partly drawn) [Example 3, Threo S-(5-Hydroxy-1-methoxycarbonyl-6-heptadecyl)-L-cysteine Methyl Ester], the values for the IC50 in test [2] and in test [1] were 14 µM and above 100 µM, respectively.
On to `CCCCCCCCCCC[C@@H](SCCC(=O)O)[C@@H](O)CCCCC(=O)O` (relative stereo) [Example 5, Erythro 7-(2-Carboxyethyl)thio-6-hydroxyoctadecanoic Acid], for which the IC50 worked out at 0.08 µM in test [2] and 3.6 µM in test [1].
Regarding `CCCCCCCCCCC[C@@H](SCCC(=O)OC)[C@H](O)CCCCC(=O)OC` (relative stereo) [Example 1, Threo Methyl 6-Hydroxy-7{[2-(methoxycarbonyl)ethyl]thio}octadecanoate], the IC50 was 1 µM in test [2] and above 100 µM in test [1].
